Reference: patent publication US7482328B2, “Antimicrobial polypeptide and utilization thereof” (Toagosei Co., Ltd., priority 2002, dated 2009)
No end group written: not given here.

What was measured:
Type in all cases: cell-based
[1] = tested on: Escherichia coli O157:H7 sakai; conditions: O157:H7, 24 h
Description: (§1) More specifically, liquid bouillon media (“NUTRIENT BROTH Dehydraged” manufactured by DIFCO) in a polypeptide concentration of 500, 250, 125, 62.5, 31.3, 15.6, 7.8, 3.9, 1.9, 1.0 and 0.5 μM were prepared, and filled in a 96-well microplate. On the other hand, bacteria suspension (about 2×10^6 cells/mL) that had been stationary cultured at 37° C. for 18 hours with LB Broth, Lennox (manufactured by DIFCO) were inoculated to each well of the 96-well microplate in an equal amount to that of the pharmaceutical solution (the above-described polypeptide-containing bouillon medium). After inoculation, culture was started in an incubator at 37° C., and it was examined based on the turbidity after 24 hours and 48 hours whether or not bacteria are present. The minimum of the polypeptide concentrations in which no increase in the turbidity caused by bacteria at the time of measurement was observed was defined as MIC in this example.
(§2) Next, regarding the polypeptides of the samples 16, 17, 10, 14, and 20, the same antimicrobial test (MIC measurement test) as in Example 2 was performed with respect to various bacteria (see Table 3), and the antimicrobial spectra of these polypeptides were evaluated.

[2] = tested on: E. coli
Description: (§3) Regarding the antimicrobial polypeptide of the present invention (samples 1 to 33) and the polypeptides of comparative samples 1 to 3, the antimicrobial activities (minimum inhibitory concentration: MIC) with respect to gram-negative bacteria (E. coli) and gram-positive bacteria (S. aureus) were determined by a liquid medium dilution technique using a 96-well microplate.
as §1
(§4) The unit of MIC in Table 2 is μM. […]

[3] = tested on: S. aureus
Description: as §3, §1, §4

[4] = tested on: Bacillus brevis IFO15304
Description: as §1, §2

[5] = tested on: Bacillus cereus IFO15305; conditions: IFO15305, 24 h
Description: as §1, §2

[6] = tested on: Bacillus cereus IFO3001; conditions: IFO3001, 24 h
Description: as §1, §2

[7] = tested on: Bacillus pumilus IFO3813
Description: as §1, §2

[8] = tested on: Bacillus subtilis ATCC6633; conditions: ATCC6633, 24 h
Description: as §1, §2

[9] = tested on: Bacillus subtilis IFO3134; conditions: IFO3134, 24 h
Description: as §1, §2

[10] = tested on: Escherichia coli IFO12713; conditions: IFO12713, 24 h
Description: as §1, §2

[11] = tested on: Klebsiella pneumoniae ATCC4352; conditions: ATCC4352, 24 h
Description: as §1, §2

[12] = tested on: Micrococcus luteus IFO12708; conditions: IFO12708, 24 h
Description: as §1, §2

[13] = tested on: Proteus vulgaris ATCC13315; conditions: ATCC13315, 24 h
Description: as §1, §2

[14] = tested on: Pseudomonas aeruginosa ATCC10145; conditions: ATCC10145, 24 h
Description: as §1, §2

[15] = tested on: Pseudomonas aeruginosa IFO3080; conditions: IFO3080, 24 h
Description: as §1, §2

[16] = tested on: Salmonella enteritidis IFO3313; conditions: IFO3313, 24 h
Description: as §1, §2

[17] = tested on: Salmonella typhimurium IFO1324; conditions: murium IFO1324, 24 h
Description: as §1, §2

[18] = tested on: Staphylococcus aureus COL (MRSA)
Description: as §1, §2

[19] = tested on: Staphylococcus aureus IFO12732; conditions: IFO12732, 24 h
Description: as §1, §2

[20] = tested on: Staphylococcus aureus IID1677 (MRSA); conditions: IID1677, 24 h
Description: as §1, §2

[21] = tested on: Staphylococcus aureus RN450 (*MSSA); conditions: RN450 (*, 24 h)
Description: as §1, §2

[22] = tested on: gram-negative bacteria (E. coli) and gram-positive bacteria (S. aureus); assay: antimicrobial test of Example 2, results summed up in words; conditions: summary of Table 2, E. coli and S. aureus
Description: as §3, §1

| Sequence | antimicrobial activity after 24 hours: MIC [1] [µM] | antimicrobial activity (MIC) E. coli after 48h [2] [µM] | antimicrobial activity (MIC) S. aureus after 24h [3] [µM] | antimicrobial activity (MIC) S. aureus after 48h [3] [µM] | antimicrobial activity after 24 hours: MIC [4] [µM] | antimicrobial activity after 24 hours: MIC [5] [µM] | antimicrobial activity after 24 hours: MIC [6] [µM] | antimicrobial activity after 24 hours: MIC [7] [µM] | antimicrobial activity after 24 hours: MIC [8] [µM] | antimicrobial activity after 24 hours: MIC [9] [µM] | antimicrobial activity after 24 hours: MIC [10] [µM] | antimicrobial activity after 24 hours: MIC [11] [µM] | antimicrobial activity after 24 hours: MIC [12] [µM] | antimicrobial activity after 24 hours: MIC [13] [µM] | antimicrobial activity after 24 hours: MIC [14] [µM] | antimicrobial activity after 24 hours: MIC [15] [µM] | antimicrobial activity after 24 hours: MIC [16] [µM] | antimicrobial activity after 24 hours: MIC [17] [µM] | antimicrobial activity (MIC) E. coli after 24h [2] [µM] | antimicrobial activities (in words) [22] | further results |
| --- | --- | --- | --- | --- | --- | --- | --- | --- | --- | --- | --- | --- | --- | --- | --- | --- | --- | --- | --- | --- | --- |
| PKKKRKVPKKKRKV [sample 16, PKKKRKVPKKKRKV] | 17.9 | – | – | – | – | – | – | – | – | – | – | – | – | – | – | – | – | – | – | – | – |
| RIRKKLRRIRKKLR [sample 17, RIRKKLRRIRKKLR] | 8.1 | 3.9 | 3.9 | 3.9 | >260.3 | >260.3 | >260.3 | 16.3 | 1.0 | 0.5 | 8.1 | 8.1 | 4.1 | 8.1 | 8.1 | 8.1 | 4.1 | 4.1 | – | – | antimicrobial activity after 24 hours: MIC [18]: 16.3 µM; antimicrobial activity after 24 hours: MIC [19]: 2.0 µM; antimicrobial activity after 24 hours: MIC [20]: 8.1 µM; antimicrobial activity after 24 hours: MIC [21]: 32.5 µM |
| RKKKRKVKRKKKR [sample 29, RKKKRKVKRKKKR] | – | 1.0 | 3.9 | 7.8 | – | – | – | – | – | – | – | – | – | – | – | – | – | – | 1.0 | particularly high antimicrobial activities | – |
| RKKKRKVLALKLAGLDI [sample 14, RKKKRKVLALKLAGLDI] | 8.0 | 3.9 | 1.0 | 1.9 | 128.2 | 64.1 | 32.0 | 4.0 | 1.0 | 1.0 | 8.0 | 32.0 | 4.0 | 64.1 | 32.0 | 16.0 | 32.0 | >256.3 | 3.9 | high antimicrobial activities | antimicrobial activity after 24 hours: MIC [18]: 16.0 µM; antimicrobial activity after 24 hours: MIC [21]: 16.0 µM |
| RKKKRKVVKRKKKR [sample 28, RKKKRKVVKRKKKR] | – | 1.0 | 3.9 | 7.8 | – | – | – | – | – | – | – | – | – | – | – | – | – | – | 1.0 | particularly high antimicrobial activities | – |
